Consider two molecules from paper PMC12290638, “Cubebin, a Lignan Isolated from Drimys andina, Exhibits Potent and Selective Antiparasitic Activity against Angiostrongylus cantonensis” (ACS Omega, 2025).

As a reminder, the CC50 is the concentration giving 50% cytotoxicity. The term EC50 denotes the concentration that produces a half-maximal response.

Data set [1] is described as follows: Cytotoxicity assay (MTT), HaCaT cells. It is filed as cell-based, human. The conditions noted are these: human, HaCaT cells, MTT, 48 h exposure per figure legend (method: 24 h), read-out: mammalian cells CC50, human. As for the experimental part: (§1) HaCaT cells (human keratinocytes) were obtained from the Banco de Células do Rio de Janeiro (Duque de Caxias, RJ, Brazil), and Vero cells (monkey kidney epithelial cells) were purchased from the American Type Culture Collection (ATCC CCL-81; Manassas, V). Cells were cultured in DMEM supplemented with 2 mM L-glutamine (Vitrocell), 100 U/mL penicillin, 100 μg/mL streptomycin, and 10% heat-inactivated fetal bovine serum, and maintained at 37 °C in a humidified atmosphere containing 5% CO2.
(§2) Cytotoxicity was evaluated using the MTT assay as previously described. Briefly, cells were seeded into 96-well plates (Corning) at a density of 2 × 10^3 cells per well and exposed to cubebin. The initial concentration tested was 500 μM, followed by 3-fold serial dilutions. Doxorubicin (15 μM) served as the positive control, while 0.5% DMSO was used as negative control. After 24 h of incubation at 37 °C with 5% CO2, MTT solution (Sigma) was added, and plates were incubated for an additional 4 h. Absorbance was measured at 595 nm using a spectrophotometer (Epoch, BioTek Instruments, Winooski, VT). Cell viability was expressed as a percentage relative to control wells. All assays were performed in triplicate and repeated independently three times.
(§3) EC50 and CC50 values were calculated from nonlinear sigmoidal dose–response curves using GraphPad Prism version 8.0 (San Diego, CA). Group differences were analyzed using one-way ANOVA followed by Tukey’s post hoc test. A P-value of <0.05 was considered statistically significant.

Data set [2] has as its system HaCaT cells (human keratinocytes). The data set can be described thus: Cytotoxicity assay (MTT), HaCaT cells. It is filed as cell-based. As to conditions: at concentrations up to 200 μM. How it is done:
as §1, §2, §3

Data set [3] concerns Vero cells (monkey kidney epithelial cells). The data set can be described thus: Cytotoxicity assay (MTT), Vero cells. It is filed as cell-based. The conditions noted are these: at concentrations up to 200 μM. As for the experimental part:
as §1, §2, §3

The nature of data set [4]: Cytotoxicity assay (MTT), Vero cells. It is filed as cell-based, monkey. As to conditions: monkey, Vero cells, MTT, 48 h exposure per figure legend (method: 24 h), read-out: mammalian cells CC50, monkey. How it is done: as §1, §2, §3
Data set [5] concerns Angiostrongylus cantonensis infective third-stage (L3) larvae. The data set is described as follows: Antiparasitic assay with A. cantonensis L3 larvae (motility). It is filed as cell-based. As to conditions: for EC50: read-out: A. cantonensis EC50, L3; for selectivity index, L3: SI = CC50 (human HaCaT cells)/EC50 (L3). How it is done:
(§4) The life cycle of A. cantonensis (NPDN-AC strain) was maintained at the Research Center on Neglected Diseases, Guarulhos University, using either Biomphalaria glabrata (freshwater snails) or Achatina fulica (terrestrial mollusks) as intermediate hosts, and Wistar rats (Rattus norvegicus) as definitive hosts. All animals were maintained under controlled conditions (22 °C, ∼50% humidity) with ad libitum access to food and water.
Third-stage larvae (L3) of A. cantonensis were obtained from infected A. fulica via artificial digestion in HCl-pepsin solution, followed by sedimentation using the modified Rugai method. Approximately 50 larvae were added per well in 96-well plates. Cubebin and albendazole were tested starting at 100 μM in a serial dilution format for EC50 estimation. Plates were incubated at 21 °C, and larval viability was assessed at 0 and 24 h using an inverted microscope. […] Efficacy was defined as ≥60% immobility after 24 h.
as §3

For data set [6], the system named is Angiostrongylus cantonensis first-stage (L1) larvae. The data set is described as follows: Antiparasitic assay with A. cantonensis L1 larvae (motility). It is filed as cell-based. The conditions noted are these: for EC50: Angiostrongylus cantonensis, read-out: A. cantonensis EC50, L1; for selectivity index, L1: SI = CC50 (human HaCaT cells)/EC50 (L1). As for the experimental part:
as §4
First-stage larvae (L1) of A. cantonensis were isolated from the feces of infected Wistar rats using the Rugai sedimentation technique, followed by washing in RPMI 1640 medium containing antibiotics. Approximately 50 larvae were transferred to each well of a 96-well plate. Cubebin and albendazole (positive control) were tested starting at 100 μM using a serial dilution format for EC50 determination. Plates were incubated at 21 °C. Untreated larvae served as negative controls. […] Efficacy was defined as ≥60% of larvae becoming immobile after 24 h.
as §3

For data set [7], the system named is Caenorhabditis elegans (Bristol N2 strain) L4 larvae. The data set can be described thus: Lethal toxicity assay in C. elegans. As to conditions: for C. elegans LD50 (lethal concentration 50%): L4 larvae, immobility, 72 h exposure per b20 (method b64: 24 h); for toxicity in C. elegans: cubebin at concentrations up to 1000 μM. It is filed as in vivo. How it is done: The nematode C. elegans (Bristol N2 strain) was maintained on nematode growth medium (NGM) plates seeded with Escherichia coli […].
Synchronized fourth-stage larvae (L4) of C. elegans were transferred to 96-well plates containing M9 medium, with approximately 60 larvae per well. Cubebin was tested at concentrations starting from 1000 μM. Ivermectin (10 μM) served as the positive control, while 0.5% DMSO was used as the negative control. After 24 h of incubation at 21 °C, larval viability was evaluated based on movement. Toxicity was defined as ≥60% immobility.

Where [8] appears, read: 24 h, score 1 = immotile to 4 = highly active.

Each structure is given as a SMILES string. “Also recorded” adds a separate entry of the source. Like-named read-outs stand apart in the source and are kept apart here.

In the case of `CCCSc1ccc2nc(NC(=O)OC)[nH]c2c1` [albendazole, reference compound], the cytotoxic concentration (CC50) at 48 h in data set [1] and in data set [4] was over 200 µM in each case. The “cytotoxicity in HaCaT cells” value in data set [2] is listed as “no cytotoxicity”. Besides, the “cytotoxicity in Vero cells” value in data set [3] is listed as “no cytotoxicity”. For the same molecule, the half-maximal effective concentration (EC50) amounted to 12.3 ± 1.9 µM in data set [5] (Angiostrongylus cantonensis, 24 h) and 12.8 ± 1.3 µM in data set [6] (24 h). For the same molecule, the “selectivity index, L3” value in data set [5] is given as over 16.2. Moreover, in data set [6], the “selectivity index, L1” value is on record as over 15.6. In data set [7], the “C. elegans LD50 (lethal concentration 50%)” value is 13.6 ± 1.1 µM. Besides, in data set [7], the “toxicity in C. elegans” value is reported as “potent toxicity”.

In the case of `OC1OCC(Cc2ccc3c(c2)OCO3)C1Cc1ccc2c(c1)OCO2` (centres unmarked) [cubebin], the CC50 at 48 h in data set [1] (HaCaT cells (human keratinocytes)) was over 200 µM; in data set [4] (Vero cells (monkey kidney epithelial cells, ATCC CCL-81)) it was over 200 µM. For the same molecule, the “cytotoxicity in HaCaT cells” value in data set [2] was “no cytotoxicity”. Moreover, in data set [3], the “cytotoxicity in Vero cells” value is “no cytotoxicity”. In data set [5] (setting [8]), the “larval viability (motility) score, L3” value was determined as 1. The EC50 came to 15.3 µM in data set [5] (Angiostrongylus cantonensis, 24 h, infective third-stage (L3) larvae, 24 h, 21 °C, immobility, mean ± SD, three independent experiments); 15.2 ± 0.9 µM in data set [5] (infective third-stage (L3) larvae, 24 h, 21 °C, immobility, mean ± SD, three independent experiments); 4.7 ± 0.8 µM in data set [6] (first-stage (L1) larvae, 24 h, 21 °C, immobility, mean ± SD, three independent experiments). Besides, the “selectivity index, L3” value in data set [5] is given as over 13.1. For the same molecule, the “larval viability (motility) score, L1” value in data set [6] (setting [8]) is listed as 1. Moreover, the “selectivity index, L1” value in data set [6] is reported as over 42.5. Also, in data set [7], the “C. elegans LD50 (lethal concentration 50%)” value was over 1000 µM. Besides, in data set [7], the “toxicity in C. elegans” value is reported as “no observable toxicity; also recorded: nontoxic”.
